# According to US20200016159A1, “N3-CYCLICALLY SUBSTITUTED THIENOURACILS AND USE THEREOF” (Bayer Aktiengesellschaft, priority 2016, published 2020):
# Target: T1, human adenosine A2b receptor (Homo sapiens, UniProt P29275)
# T1 sequence (P29275 1-332): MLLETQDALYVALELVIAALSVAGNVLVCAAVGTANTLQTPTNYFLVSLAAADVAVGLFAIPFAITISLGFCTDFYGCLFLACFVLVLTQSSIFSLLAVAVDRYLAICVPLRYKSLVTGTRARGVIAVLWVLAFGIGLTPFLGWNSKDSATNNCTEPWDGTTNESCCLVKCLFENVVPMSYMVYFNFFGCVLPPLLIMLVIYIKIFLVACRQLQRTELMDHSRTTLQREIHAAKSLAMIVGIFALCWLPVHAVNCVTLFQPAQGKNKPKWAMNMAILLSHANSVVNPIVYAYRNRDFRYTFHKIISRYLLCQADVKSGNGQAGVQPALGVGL
# Assay: Cellular in vitro reporter gene test for A2b receptor activity (antagonism of NECA)
# Assay type: cell-based
# Parameters: expressed in transfected cells; host or cells: CHO-K1 (Chinese hamster ovary) with CRE-luciferase reporter
# Settings: recombinant CHO-K1 cells, CRE-luciferase reporter, co-incubation with EC50 concentration of NECA, 3 hours
# Procedure: The identification of selective antagonists of the human adenosine A2b receptor and the quantification of the efficacy and selectivity of the compounds according to the invention was carried out with the aid of recombinant cell lines for the human adenosine receptors A1, A2a, A2b and A3. These cell lines were originally derived from an ovarepithelial cell of the hamster (Chinese Hamster Ovary, CHO-K1, American Type Culture Collection, Manassas, Va. 20108, USA). In addition to the respective recombinantly expressed adenosine receptor for testing the efficacy at the A1, A2a and A2b receptors, the cell lines contain a reporter gene construct where expression of the firefly (Photinus pyralis) luciferase is under the control of a promoter which can be activated via intracellular signal cascades by stimulation of the receptors with the (not subtype-selective) adenosine receptor agonist NECA (5′-N-ethylcarboxamidoadenosine) [S. J. Hill, J. G. Baker, S. Rhees, Curr. Opin. Pharmacol. 1, 526-532 (2001)].
# In the case of the A2a and A2b cell lines, this is a minimal promoter having a plurality of cAMP-responsive elements (CRE). Stimulation of the Gs-coupled A2b or A2a receptors by NECA ultimately leads, via formation of cAMP, to CRE-dependent induction of luciferase expression, which is detected 3 hours after the start of the incubation with NECA using a detection solution in a suitable luminometer. For testing the antagonists, initially, in a pre-experiment, the concentration of NECA which, at the test day in question, results in half-maximum stimulation of luciferase expression (EC50 concentration) is determined. By joint incubation of this EC50 concentration of NECA with the substances to be tested, it is possible to determine their antagonistic activity.
# Table 1 below lists the IC50 values from the A2b receptor assay for individual working examples (in some cases as means of a plurality of independent individual determinations and rounded to two significant figures; it may also be the case here that various independent preparations of the respective working example have been used): […]
row,Structure (SMILES),IC50
1,"Cc1c(CN2CCNC2=O)sc2c1c(=O)n(C1CC1)c(=O)n2CCOC(F)(F)F [Example 35, 3-Cyclopropyl-5-methyl-6-[(2-oxoimidazolidin-1-yl)methyl]-1-[2-(trifluoromethoxy)ethyl]thieno[2,3-d]pyrimidine-2,4(1H,3H)-dione]",1.8 nM
2,"Cc1c(CN2CCNC2=O)sc2c1c(=O)n(C1CC1C)c(=O)n2CC(F)F (single isomer, unassigned) [Example 235, 1-(2,2-Difluoroethyl)-5-methyl-3-(2-methylcyclopropyl)-6-[(2-oxoimidazolidin-1-yl)methyl]thieno[2,3-d]pyrimidine-2,4(1H,3H)-dione]",18 nM
3,"COC(=O)N=C1NCCN1Cc1sc2c(c1C)c(=O)n(C1CC1C)c(=O)n2CCOC(F)(F)F (racemic) [Example 267, Methyl [1-({5-methyl-3-(2-methylcyclopropyl)-2,4-dioxo-1-[2-(trifluoromethoxy)ethyl]-1,2,3,4-tetrahydrothieno[2,3-d]pyrimidin-6-yl}methyl)imidazolidin-2-ylidene]carbamate]",2.4 nM
4,"Cc1c(Cn2nc[nH]c2=O)sc2c1c(=O)n(C1CC1)c(=O)n2C[C@@H]1CCCO1 [Example 51, 3-Cyclopropyl-5-methyl-6-[(5-oxo-4,5-dihydro-1H-1,2,4-triazol-1-yl)methyl]-1-[(2S)-tetrahydrofuran-2-ylmethyl]thieno[2,3-d]pyrimidine-2,4(1H, 3H)-dione]",320 nM
5,"Cc1c(CN2CCNC2=O)sc2c1c(=O)n(C1(C)CCC1)c(=O)n2CCC(F)(F)F [Example 134, 5-Methyl-3-(1-methylcyclobutyl)-6-[(2-oxoimidazolidin-1-yl)methyl]-1-(3,3,3-trifluoropropyl)thieno[2,3-d]pyrimidine-2,4(1H,3H)-dione]",34 nM
6,"Cc1c(CN2CCNC(=O)C2=O)sc2c1c(=O)n(C1CC3(CCC3)C1)c(=O)n2CCC(F)(F)F [Example 177, 6-[(2,3-Dioxopiperazin-1-yl)methyl]-5-methyl-3-(spiro[3.3]hept-2-yl)-1-(3,3,3-trifluoropropyl)thieno[2,3-d]pyrimidine-2,4(1H,3H)-dione]",17 nM
7,"Cc1c(CN2CCNC2=O)sc2c1c(=O)n(C1CC1C)c(=O)n2CCCC(F)(F)F (single isomer, unassigned) [Example 243, 5-Methyl-3-(2-methylcyclopropyl)-6-[(2-oxoimidazolidin-1-yl)methyl]-1-(4,4,4-trifluorobutyl)thieno[2,3-d]pyrimidine-2,4(1H,3H)-dione]",8.4 nM
8,"Cc1c(CN2CCNC2=O)sc2c1c(=O)n(C1CC1)c(=O)n2CC1CC1(F)F (racemic) [Example 19, 3-Cyclopropyl-1-[(2,2-difluorocyclopropyl)methyl]-5-methyl-6-[(2-oxoimidazolidin-1-yl)methyl]thieno[2,3-d]pyrimidine-2,4(1H,3H)-dione (racemate)]",19 nM
9,"Cc1c(Cn2nc[nH]c2=O)sc2c1c(=O)n([C@H]1C[C@@H]1C)c(=O)n2C [Example 220, 1,5-Dimethyl-3-[(1S,2S)-2-methylcyclopropyl]-6-[(5-oxo-4,5-dihydro-1H-1,2,4-triazol-1-yl)methyl]thieno[2,3-d]pyrimidine-2,4(1H,3H)-dione]",33 nM
10,"Cc1c(CN2CCNC2=O)sc2c1c(=O)n(C1CC1)c(=O)n2C[C@H]1CCCO1 [Example 38, 3-Cyclopropyl-5-methyl-6-[(2-oxoimidazolidin-1-yl)methyl]-1-[(2R)-tetrahydrofuran-2-ylmethyl]thieno[2,3-d]pyrimidine-2,4(1H,3H)-dione]",33 nM
11,"COCCn1c(=O)n(C2(C)CCC2)c(=O)c2c(C)c(CN3CCNC3=NC(=O)OC)sc21 [Example 141, Methyl [1-{[1-(2-methoxyethyl)-5-methyl-3-(1-methylcyclobutyl)-2,4-dioxo-1,2,3,4-tetrahydrothieno[2,3-d]pyrimidin-6-yl]methyl}imidazolidine-2-ylidene]carbamate]",110 nM
12,"COCCn1c(=O)n(C2CC(F)(F)C2)c(=O)c2c(C)c(CN3CCNC3=NC#N)sc21 [Example 126, [1-{[3-(3,3-Difluorocyclobutyl)-1-(2-methoxyethyl)-5-methyl-2,4-dioxo-1,2,3,4-tetrahydrothieno[2,3-d]pyrimidin-6-yl]methyl}imidazolidin-2-ylidene]cyanamide]",14 nM
13,"COCCn1c(=O)n(C2CCCC2)c(=O)c2c(C)c(Cn3nc[nH]c3=O)sc21 [Example 193, 3-Cyclopentyl-1-(2-methoxyethyl)-5-methyl-6-[(5-oxo-4,5-dihydro-1H-1,2,4-triazol-1-yl)methyl]thieno[2,3-d]pyrimidine-2,4(1H,3H)-dione]",230 nM
14,"Cc1c(CN2CCNC2=NC#N)sc2c1c(=O)n(C1CC(C)(C)C1)c(=O)n2CCC(F)(F)F [Example 165, [1-{[3-(3,3-Dimethylcyclobutyl)-5-methyl-2,4-dioxo-1-(3,3,3-trifluoropropyl)-1,2,3,4-tetrahydrothieno[2,3-d]pyrimidin-6-yl]methyl}imidazolidin-2-ylidene]cyanamide]",14 nM
15,"Cc1c(CN2CCNC2=NC#N)sc2c1c(=O)n(C1CCC1)c(=O)n2CCC(F)(F)F [Example 111, [1-{[3-Cyclobutyl-5-methyl-2,4-dioxo-1-(3,3,3-trifluoropropyl)-1,2,3,4-tetrahydrothieno[2,3-d]pyrimidin-6-yl]methyl}imidazolidin-2-ylidene]cyanamide]",1.7 nM
16,"Cc1c(Cn2nc[nH]c2=O)sc2c1c(=O)n(C1CC1)c(=O)n2CCSC(F)(F)F [Example 213, 3-Cyclopropyl-5-methyl-6-[(5-oxo-4,5-dihydro-1H-1,2,4-triazol-1-yl)methyl]-1-{2-[(trifluoromethyl)sulfanyl]ethyl}thieno[2,3-d]pyrimidine-2,4(1H,3H)-dione]",40 nM
17,"COCCn1c(=O)n(C2CC2C)c(=O)c2c(C)c(CN3CCNC3=O)sc21 (racemic) [Example 258, 1-(2-Methoxyethyl)-5-methyl-3-(2-methylcyclopropyl)-6-[(2-oxoimidazolidin-1-yl)methyl]thieno[2,3-d]pyrimidine-2,4(1H,3H)-dione]",6.4 nM
18,"COCCn1c(=O)n(C2(C)CC2)c(=O)c2c(C)c(Cn3cc[nH]c3=O)sc21 [Example 217, 1-(2-Methoxyethyl)-5-methyl-3-(1-methylcyclopropyl)-6-[(2-oxo-2,3-dihydro-1H-imidazol-1-yl)methyl]thieno[2,3-d]pyrimidine-2,4(1H,3H)-dione]",38 nM
19,"COCCn1c(=O)n(C2(C)CC2)c(=O)c2c(C)c(CN3CCNC(=O)C3=O)sc21 [Example 73, 6-[(2,3-Dioxopiperazin-1-yl)methyl]-1-(2-methoxyethyl)-5-methyl-3-(1-methylcyclopropyl)thieno[2,3-d]pyrimidine-2,4(1H,3H)-dione]",29 nM
20,"COCCn1c(=O)n(C2CC2)c(=O)c2c(C)c(CN3CCNC3=NC#N)sc21 [Example 25, [1-{[3-Cyclopropyl-1-(2-methoxyethyl)-5-methyl-2,4-dioxo-1,2,3,4-tetrahydrothieno[2,3-d]pyrimidin-6-yl]methyl}imidazolidin-2-ylidene]cyanamide]",12 nM
21,"Cc1c(CN2CCNC2=O)sc2c1c(=O)n(C1CC1C)c(=O)n2CC(F)F (single isomer, unassigned) [Example 236, 1-(2,2-Difluoroethyl)-5-methyl-3-(2-methylcyclopropyl)-6-[(2-oxoimidazolidin-1-yl)methyl]thieno[2,3-d]pyrimidine-2,4(1H,3H)-dione]",1.2 nM
22,"Cc1c(CN2CCNC2=O)sc2c1c(=O)n(C1COC1)c(=O)n2CCC(F)(F)F [Example 130, 5-Methyl-3-(oxetan-3-yl)-6-[(2-oxoimidazolidin-1-yl)methyl]-1-(3,3,3-trifluoropropyl)thieno[2,3-d]pyrimidine-2,4(1H,3H)-dione]",14 nM
23,"Cc1c(Cn2[nH]ccc2=O)sc2c1c(=O)n(C1CC1C)c(=O)n2CCOC(F)(F)F (single isomer, unassigned) [Example 275, 5-Methyl-3-(2-methylcyclopropyl)-6-[(5-oxo-2,5-dihydro-1H-pyrazol-1-yl)methyl]-1-[2-(trifluoromethoxy)ethyl]thieno[2,3-d]pyrimidine-2,4(1H,3H)-dione]",63 nM
